Source: patent EP4740940A1, “POLLEN PARTICLES AS CARRIERS FOR PULMONARY DELIVERY” (Universidade de Santiago de Compostela, priority 2023, dated 2025)
≈ marks a conversion by molar mass, not a printed value.

What was measured:
RAW 264.7 cells = test: MTT cytotoxicity assay; assay type: cell-based; settings: 12.5 µg/mL rifabutin
Description: To ensure that the microparticles of the invention can be safely used for pharmaceutical uses, MTT was used to investigate their cytotoxicity in Raw264.7 cells. In that sense, the in vitro toxicity of the microparticles of the invention, prepared according to Example 4, was evaluated by means of an MTT colorimetric assay, quantifying the water-insoluble formazan in RAW 264.7 cells after 24 hours of incubation of different particle concentrations. Cells were seeded (10,000 cells/well) 24 h before the experiment in a 96-well plate in a DMEM culture medium (10% FBS and 1% penicillin/streptomycin) at […] 37°C and 5% CO2. The medium was then replaced with the formulations and the cells were incubated for 24 hours. Fresh medium was used as negative control and Triton x100 (1% v/v) was used as positive control. After 24 h, 0.5 mg/mL of MTT dissolved in PBS were added, and the cells were incubated for 4 h at 37°C in darkness. Formazan crystals were dissolved by means of adding HCl 0.04 N in isopropanol and absorbance was measured at 570 nm using a microplate reader (Synergy H1 Hybrid Multi-Mode, BioTek, Winooski, VT, USA). Cell viability (%) was calculated following the equation: Cell viability (%) = (Sample absorbance−Negative control absorbance)/(Positive control absorbance−Negative control absorbance) × 100 [formula]

M. phlei, M. smegmatis = test: Resazurin-based microdilution growth inhibition assay; assay type: cell-based; settings: for IC50 / IC90: strain and unit inferred
Description: The antibacterial activity of the microparticles of the invention with rifabutin (and of the nanosystems) was evaluated in the strain that grows rapidly, M. phlei, and in the strain that grows slowly, M. smegmatis, using a resazurin-based microdilution assay according to the EUCAST guidelines and CSLI guidelines with slight modifications. This is a quick and objective method, and the minimum inhibitory concentration (MIC) is easily detectable because resazurin (blue) turns into resorufin (pink fluorescence) in the presence of viable bacteria. The microparticles of the invention with rifabutin were diluted in a cation-adjusted 2X Mueller-Hinton broth (CaMHB) until reaching a final antibiotic concentration of 32 mg/L. Since the range of susceptibility of Mycobacterium species to rifabutin is ≤0.25-16 mg/L, the highest tested antibiotic concentration was 16 mg/L. A bacterial suspension (in CaMHB) was diluted to a final concentration of 5 × 10^5 CFU/mL. For efficacy determination, the following controls were used: (i) growth control (without treatment), (ii) sterility control (CaMHB), (iii) positive control for inhibitory effect (free rifabutin in solution), and as well as (iv) the microparticles of the invention (without rifabutin), so as to take into account the possible effects of the microparticles of the invention on bacterial growth. […] Fluorescence intensity was measured at 560 and 590 nm of excitation and monitored using the FLUOR®star Omega multimode lector (Biotron Healthcare, India) and the MARS data analysis software, after an incubation period of 30 min at 37°C. The lowest concentration at which color change was observed was considered the minimum inhibitory concentration (MIC) value. Furthermore, IC50 was calculated using an online tool: "Quest Graph™ IC50 Calculator". AAT Bioquest, Inc.

Mycobacterium smegmatis = test: Biofilm disruption, crystal violet assay; assay type: cell-based; parameters: MIC: unit not given beside the values
Description: In these experiments, the antimicrobial potential of the system was evaluated in Mycobacterium smegmatis used as a model of M. tuberculosis as they have homologous genes. The biofilm formation potential of Mycobacterium smegmatis was evaluated by scanning electron microscopy and the formation thereof was quantified with crystal violet, using 96-well plates made of polyvinyl chloride.
A crystal violet-based spectrophotometric study was used. To that end, M. smegmatis was inoculated in liquid culture (5 mL of 7H9 medium supplemented with OACC) and left to grow to exponential phase. The culture was diluted 1:100 and 100 µL were pipetted into each well. The controls were the rifabutin-free formulations and the blank was the bacterial culture-free medium. After incubating for two days at 37°C and once the biofilm was formed, the plates were washed with distilled water to remove planktonic cells and 200 µL of each formulation were added in serial dilutions (in the same manner as above). After 24 h, the plate was washed with water again to remove possible planktonic cells, and the biofilm was stained with 125 µL of 0.1% crystal violet solution and incubated for 10 min at room temperature. It was the washed with water and stirred vigorously. Finally, remaining crystal violet was solubilized by adding 200 µL of 95% ethanol and incubating for 15 min at room temperature. The solution was then transferred to a 96-well, flat-bottom plate, and biofilm formation was measured at 570 nm.

[1] = cited from earlier work
Mycobacterium species = settings: cited from earlier work
[2] = Mycolicibacterium smegmatis, Biofilm culture, unit inferred

CO[C@H]1/C=C/O[C@@]2(C)Oc3c(C)c(O)c4c(c3C2=O)C2=NC3(CCN(CC(C)C)CC3)NC2=C(NC(=O)/C(C)=C\C=C\[C@H](C)[C@H](O)[C@@H](C)[C@@H](O)[C@@H](C)[C@H](OC(C)=O)[C@@H]1C)C4=O [Rifabutin]
viability (RAW 264.7 cells): > 50%
MIC (M. phlei, M. smegmatis; 2-day preinoculum, strain and unit not given): 4
MIC (M. phlei, M. smegmatis; 4-day preinoculum, strain and unit not given): 4
IC50 (M. phlei, M. smegmatis; 48 h, 2-day preinoculum): 2.24 µg/mL (≈ 2.64 µM)
IC90 (M. phlei, M. smegmatis; 48 h, 2-day preinoculum): 20.2 µg/mL (≈ 23.8 µM)
IC50 (M. phlei, M. smegmatis; 96 h, 4-day preinoculum): 2.04 µg/mL (≈ 2.41 µM)
IC90 (M. phlei, M. smegmatis; 96 h, 4-day preinoculum): 18.4 µg/mL (≈ 21.7 µM)
IC50 (M. phlei, M. smegmatis; Preinoculum culture t=0): 0.34 µg/mL (≈ 0.401 µM)
IC90 (M. phlei, M. smegmatis; Preinoculum culture t=0): 3.06 µg/mL (≈ 3.61 µM)
MIC (M. phlei, M. smegmatis; Preinoculum culture t=0, strain and unit not printed in table (method: mg/L)): 1
difference between culture with rifabutin in suspension and without treatment (Mycobacterium smegmatis; 2 mg/mL): hardly any differences
MIC (Mycobacterium smegmatis; Biofilm culture, unit not given): 4
IC50 (Mycobacterium smegmatis; [2]): 4.67 µg/mL (≈ 5.51 µM)
IC90 (Mycobacterium smegmatis; [2]): 42 µg/mL (≈ 49.6 µM)
oral bioavailability (reaches systemic circulation) [1]: less than 20%
range of susceptibility of Mycobacterium species to rifabutin (Mycobacterium species): 0.25 to 16 mg/L
